Literature values as cited in US10493103B2, “Peroxide formulations and methods and applicators for using the same” (ACLARIS THERAPEUTICS, INC., priority 2014, dated 2019).
Like-named read-outs stand apart in the source and are kept apart here.

Test system: seborrheic keratosis
[1] = applied once daily for 16 weeks

CC(O)C(=O)O.N (stereo not shown) [ammonium lactate]
effectiveness in seborrheic keratosis (in vivo): ineffective

C=C1/C(=C\C=C2/CCC[C@]3(C)[C@@H]([C@H](C)/C=C/[C@@H](O)C4CC4)CC[C@@H]23)C[C@@H](O)C[C@@H]1O [calcipotriene ointment, calcipotriene]
effectiveness in seborrheic keratosis [1]: ineffective

CC(C)Cn1cnc2c(N)nc3ccccc3c21 [imiquimod cream, imiquimod]
effectiveness in seborrheic keratosis [1]: ineffective

CCOC(=O)c1ccc(C#Cc2ccc3c(c2)C(C)(C)CCS3)nc1 [tazarotene 0.1%, tazarotene]
complications of therapy (applied twice daily): burning, pruritus and redness
subjects with efficacy (applied twice daily, off-label, 7/15 subjects): 47%

CCOC(=O)c1ccc(C#Cc2ccc3c(c2)C(C)(C)CCS3)nc1 [tazarotene cream, tazarotene]
effectiveness in seborrheic keratosis [1]: ineffective

C=C1CC[C@H](O)C/C1=C/C=C1\CCC[C@]2(C)[C@@H]([C@H](C)CCCC(C)C)CC[C@@H]12 [topical vitamin D3 ointment, vitamin D3]
patients with an 80% or more improvement in lesions (once or twice daily for an average of 7.3 months (range 3-12 months)): 30%
